# Values joined by “and” are separate entries in the source; they are usually repeats but may differ in a detail not shown here. Equal values may be shown once. “Also recorded” adds a separate entry of the source.
# Legend:
# [1] = Relative quantum yield measurement against ICG standard; format: physicochemical; conditions: at pH 4.0, PBS
# Protocol: Spectroscopic analysis. Stock solutions (1 mM in DMSO) of CypH-11, CypH-1, and Cy7 were stored at a −30° C. freezer and used for the following experiments. For the pKa measurement, the respective compound was diluted in 20 mM phosphate-buffered solution (PBS, pH 2.0-11.0) to a final concentration of 2 μM. The fluorescence intensity (λex=725 nm and λcm=785 nm) was measured on a plate reader (Tecan Infinite M1000 Pro), and the fluorescence images were recorded with a fluorescence imaging system (Bruker In-vivo F Pro). For the quantum yield measurement, indocyanine green (ICG, Φ=1.2% in water) was used as the standard compound. The respective compound (0.4, 0.8, 1.2, 1.6, and 2.0 μM) in PBS solutions (pH=4.0 and pH=7.4) was measured using a Cary 60 UV-Vis spectrophotometer and Cary Eclipse fluorescence spectrophotometer (Agilent). The slope of fluorescence vs absorbance was compared with that of ICG to calculate the relative quantum yield.
# [2] = system: SKOV3/GFP-Luc subcutaneous tumors; assay: In vivo fluorescence imaging of subcutaneous tumors by spraying, SKOV3/GFP-Luc model; set-up: species or system mice; conditions: for signal to background ratio: 2 μM
# Protocol: (§1) Tumor models of subcutaneous implants and peritoneal implants. All animal procedures were carried out in compliance with the approved animal protocols and guidelines of the Institutional Animal Care and Use Committee at Weil Cornell Medical College. Mice (female, SCID Hairless Outbred Mouse) were purchased from Charles River (Wilmington, MA). To establish the subcutaneous implants, a suspension of OVASAHO/RFP-Luc cells (5.0×10^6) or SKOV3/GFP-Luc cells (5.0×10^6) in 100 μL PBS was inoculated into each flank of the female nude mice on both sides. After two weeks, the tumor implants grew to around 5 mm in size and were used for the spray experiment. To establish the peritoneal implants, SKOV3/GFP-Luc cells (5.0×10^6) suspended in […] were injected into the abdominal cavities of the female nude mice. After two weeks, the tumor growth was examined with an in vivo bioluminescence imaging system followed by peritoneal injection of D-luciferin potassium solution (200 μL, 15 mg/mL) for 10 min. Generally, mice bearing multiple disseminated peritoneal implants of 5 mm size in diameter were used for the experiment.
# In vivo fluorescence imaging of subcutaneous tumors. Two subcutaneous tumor models (OVASAHO/RFP-Luc and SKOV3/GFP-Luc) were used to compare the imaging capability of CypH-11, CypH-1, and Cy7. Mice bearing the subcutaneous implants were anesthetized in an induction chamber using 2% isoflurane, and anesthesia was maintained with 1.5-2.0% isoflurane via a nose cone. Sterile surgical tools were used to remove skin around the tumor. The mice images were captured using an IVIS SpectrumCT System from PerkinElmer (Waltham, MA). OVASAHO/RFP-Luc and SKOV3/GFP-Luc tumors were captured under an RFP channel (Excitation: 520-550 nm and Emission: 570-590 nm) and a GFP channel (Excitation: 450-480 nm and Emission: 510 530 nm), respectively. A Cy7 channel (Excitation: 730-760 nm and Emission: 790-810 nm) was applied to evaluate the fluorescence generated by CypH-11, CypH-1, and Cy7. After skin removal, the tumor area and the background fluorescence under the Cy7 channel were measured first. Solutions of CypH-11, CypH-1, and Cy7 (2 μM each) were sprayed on the surgical area, and the fluorescence of the Cy7 channel was measured continuously at each time point (1, 3, 5, 7, 10, and 15 min). Ten, five, and three OVASAHO tumors were used to evaluate CypH-11, CypH-1, and Cy7, respectively. Six SKOV3 tumors were used to evaluate CypH-11. To evaluate the tumor-to-normal tissue ratio, the whole tumor regions and the adjacent open-skin areas were drawn, and their fluorescence intensity was acquired by the IVIS software. Tumor-to-normal tissue ratio value was calculated as the average fluorescence intensity of the tumor divided by that of the normal area. Also, tumor-bearing mice were euthanized by carbon dioxide inhalation or a high dose of isoflurane (5%). The subcutaneous tumors and the adjacent muscles were then extracted, and CypH-11 (2 μM) was sprayed onto them. Images were subsequently captured under GFP/RFP/Cy7 channels.
# (§2) Histology. To gain knowledge about the CypH-11 distribution in tumors after administration via spray and i.p. injection, the tumors were excised and analyzed. […] The slides were imaged first with a fluorescence microscope (EVOS, Thermofisher Scientific, Waltham, MA) and were subsequently stained with hematoxylin and eosin Y solution (H&E) to assess their histologic alterations under a light microscope.
# [3] = system: SKOV3/GFP-Luc disseminated peritoneal tumors; assay: In vivo fluorescence imaging of disseminated peritoneal tumors after IP administration; set-up: species or system mice
# Protocol: as §1
# In vivo fluorescence imaging of disseminated peritoneal tumors. […] The fluorescence images were captured for the whole cavity under both the GFP and Cy7 channels. […] Regions of interest (ROI, n=6, and average area=0.28±0.1 cm^2) within the tumor nodules and in the adjacent normal areas in the peritoneal cavity were drawn and calculated for tumor-to-normal tissue ratio.
# as §2
smiles,measurement,setting,value
CC(C)N(C)c1ccc(OC2=C(/C=C/C3=[N+](C(C)C)c4ccccc4C3(C)C)CCC/C2=C\C=C2\N(C(C)C)c3ccccc3C2(C)C)cc1.[I-] [CypH-11],quantum yield (Φ),[1],3.3%
same,signal to background ratio,[2]; 1 min after spray,1.3
same,signal to background ratio,[2]; 5 min after spray,1.4
same,signal to background ratio,[2]; 10 min after spray,1.6
same,NIR signal depth in tumor after spray,"[2]; sprayed, 15 min, histology",2-3 layers of cells
same,CypH-11 signal when sprayed ex vivo on excised 20-min old dead tissues,"[2]; tumor and muscle excised, held 20 min, then sprayed",no NIR signal could be detected; also recorded: No CypH-11 signal in tumor or muscle was observed
same,"tumor signal higher than the background of the peritoneum, liver, and intestine","[3]; 1 h post IP, 200 μL 2 μM in PBS",3- to 4 fold
same,size of smallest tumors detected,"[3]; 1 h post IP, no washing",1 mm and < 1 mm
same,NIR signal depth in tumor after IP injection,"[3]; IP, within an hour, histology",6-7 layers of cells

# — patent US20230302159A1, “COMPOUNDS AND COMPOSITIONS FOR TUMOR DETECTION AND SURGICAL GUIDANCE” (Cornell University, priority 2020, published 2023)
